Laboratory results reported in patent US9469650B2, “Melampomagnolide B derivatives” (BOARD OF TRUSTEES OF THE UNIVERSITY OF ARKANSAS, priority 2013, dated 2016).

Experiments:
MALME-3M [1] = system: MALME-3M
UACC-62 [2] = system: UACC-62
MALME-3M [3] = assay: panel of 60 human tumor cell lines, growth inhibition (Melanoma); details: MALME-3M
UACC-62 [4] = assay: as above; details: UACC-62
RPMI-8226 = assay: panel of 60 human tumor cell lines, growth inhibition (Leukemia); details: RPMI-8226

With `C=C1C(=O)O[C@H]2[C@H]1CC/C(COC(=O)N1CCC(F)(F)CC1)=C\CC[C@@]1(C)O[C@@H]21` [JVM 2-66] as the compound, how does the CC50 (CCRF-CEM) read?
The CC50 was 67.6 µM.

What about the CC50 (K-562) of the same compound?
The CC50 was greater than 100 µM.

What about the CC50 (MOLT-4) of the same compound?
Its CC50 is greater than 100 µM.

What about the CC50 (A549/ATCC) of the same compound?
The CC50 was 66.2 µM.

What about the CC50 (HOP-62) of the same compound?
The CC50 was 58.3 µM.

And the CC50 (HOP-92)?
The CC50 was 11.1 µM.

What about the CC50 (NCI-H226) of the same compound?
The CC50 was 10.9 µM.

What about the CC50 (NCI-H322M) of the same compound?
Its CC50 is 54.6 µM.

And the CC50 (NCI-H460)?
The CC50 was 72.6 µM.

What about the CC50 (NCI-H522) of the same compound?
Its CC50 is 6.08 µM.

What about the CC50 (HCC-2998) of the same compound?
Its CC50 is 57.9 µM.

What about the CC50 (HCT-15) of the same compound?
The CC50 was 10 µM.

And the CC50 (HT29)?
Its CC50 is 40.3 µM.

And the CC50 (SW-620)?
The CC50 was 17.9 µM.

What about the CC50 (SF-268) of the same compound?
The CC50 was 56.5 µM.

What about the CC50 (SNB-19) of the same compound?
Its CC50 is 62.7 µM.

And the CC50 (SNB-75)?
Its CC50 is 47.2 µM.

What about the CC50 (U251) of the same compound?
Its CC50 is 52.1 µM.

What about the CC50 (LOX IMVI) of the same compound?
Its CC50 is 22.5 µM.

What about the CC50 (MALME-3M [1]) of the same compound?
Its CC50 is 21.6 µM.

And the CC50 (M14)?
The CC50 was 41.7 µM.

What about the CC50 (MDA-MB-435) of the same compound?
The CC50 was 95.1 µM.

And the CC50 (SK-MEL-2)?
The CC50 was 37 µM.

What about the CC50 (SK-MEL-28) of the same compound?
Its CC50 is 33 µM.

And the CC50 (SK-MEL-5)?
Its CC50 is 40.3 µM.

And the CC50 (UACC-257)?
The CC50 was 36.5 µM.

And the CC50 (UACC-62 [2])?
Its CC50 is 23.2 µM.

And the CC50 (OVCAR-5)?
The CC50 was 48.1 µM.

What about the CC50 (OVCAR-8) of the same compound?
The CC50 was 38.5 µM.

What about the CC50 (NCI/ADR-RES) of the same compound?
The CC50 was 69.5 µM.

And the CC50 (786-0)?
Its CC50 is 48.6 µM.

What about the CC50 (A498) of the same compound?
The CC50 was 28.9 µM.

What about the CC50 (CAKI-1) of the same compound?
The CC50 was 23.8 µM.

And the CC50 (RXF 393)?
Its CC50 is 5.33 µM.

What about the CC50 (SN12C) of the same compound?
The CC50 was 37.7 µM.

And the CC50 (TK-10)?
The CC50 was 23.5 µM.

And the CC50 (PC-3)?
The CC50 was 53.8 µM.

What about the CC50 (DU-145) of the same compound?
The CC50 was 28.9 µM.

And the CC50 (MDA-MB-231/ATCC)?
Its CC50 is 30.7 µM.

And the CC50 (HS 578T)?
Its CC50 is greater than 100 µM.

What about the CC50 (BT-549) of the same compound?
Its CC50 is 29.5 µM.

What about the CC50 (T-47D) of the same compound?
Its CC50 is greater than 100 µM.

What about the GI50 (MALME-3M [3]) of the same compound?
Its GI50 is 1.9 µM.

What about the TGI (MALME-3M [3]) of the same compound?
The TGI was 4.82E−6.

What about the “Percent Growth” value (MALME-3M [3]; Log10 Concentration −4.0) of the same compound?
Its value is −72%.

And the “Percent Growth” value (MALME-3M [3]; Log10 Concentration −5.0)?
The value was −39%.

And the “Percent Growth” value (MALME-3M [3]; Log10 Concentration −6.0)?
Its value is 84%.

What about the “Percent Growth” value (MALME-3M [3]; Log10 Concentration −7.0) of the same compound?
The value was 91%.

And the “Percent Growth” value (MALME-3M [3]; Log10 Concentration −8.0)?
The value was 99%.

What about the GI50 (UACC-62 [4]) of the same compound?
The GI50 was 2.11 µM.

What about the TGI (UACC-62 [4]) of the same compound?
Its TGI is 6.00E−6.

What about the “Percent Growth” value (UACC-62 [4]; Log10 Concentration −4.0) of the same compound?
Its value is −94%.

And the “Percent Growth” value (UACC-62 [4]; Log10 Concentration −5.0)?
Its value is −24%.

What about the “Percent Growth” value (UACC-62 [4]; Log10 Concentration −6.0) of the same compound?
Its value is 86%.

What about the “Percent Growth” value (UACC-62 [4]; Log10 Concentration −7.0) of the same compound?
The value was 94%.

What about the “Percent Growth” value (UACC-62 [4]; Log10 Concentration −8.0) of the same compound?
Its value is 97%.

And the GI50 (RPMI-8226)?
The GI50 was 1.98 µM.

And the TGI (RPMI-8226)?
Its TGI is 5.83E−6.

What about the “Percent Growth” value (RPMI-8226; Log10 Concentration −4.0) of the same compound?
Its value is −46%.

What about the “Percent Growth” value (RPMI-8226; Log10 Concentration −5.0) of the same compound?
Its value is −25%.

What about the “Percent Growth” value (RPMI-8226; Log10 Concentration −6.0) of the same compound?
Its value is 81%.

And the “Percent Growth” value (RPMI-8226; Log10 Concentration −7.0)?
The value was 97%.

What about the “Percent Growth” value (RPMI-8226; Log10 Concentration −8.0) of the same compound?
Its value is 98%.
